Patent US11274332B2, “Methods of administering 3,4-diaminopyridine” (SERB SA, priority 2011, dated 2022)

Assay: Food-effect crossover study, adverse events after single 20 mg amifampridine phosphate in healthy subjects (Examples 10, 11)
Format: in vivo
Protocol: This was a randomized, open-label, 2-treatment, 2-period crossover study with 44 completed subjects to assess the safety, tolerability, and the effect of food on the relative bioavailability of a single dose of amifampridine phosphate.
Safety was evaluated for all subjects who take at least one dose of 3,4-DAP. Safety was evaluated by recording the incidence of adverse events (AEs), physical examination, vital signs, concomitant medications, clinical laboratory assessments, and 12-lead electrocardiogram (ECG).
Analysis for the following safety parameters was carried out on the Safety Population: AEs which included all AEs, AEs by severity, drug-related AEs, deaths, SAEs, AEs leading to study discontinuation, and most frequent AEs, standard clinical laboratory tests, vital signs, ECG measurements, routine physical examinations, and prior and concomitant medications. The cut-off for frequency of AEs reported was determined based on the data. No formal statistical testing was performed for the safety analyses; only descriptive statistics were provided. Appropriate descriptive statistics for the safety data were determined using SAS Version 9.2.
AEs were coded according to the Medical Dictionary for Regulatory Activities (MedDRA; Version 13.0). […] The occurrence of AEs was assessed continuously from the time the subject signed the VID and consent. The reporting period for non-serious AEs was from the first dose to the final study visit. The investigator determined the severity of each event and the relationship of an AE to the IP and recorded it on the source documents and AE CRF. The nature, time of onset, duration, severity, and relationship to study drug was documented, including documentation of investigator assessment and review. All events were assessed to determine if the AE was serious.
The Investigator determined the severity of each event and the event was recorded on the source documents and AE CRF. A coding of “mild” meant there was no limitation of usual activities, “moderate” meant there was some limitation of usual activities, “severe” meant there was an inability to carry out usual activities.
The reporting period for AEs that met the criteria of an SAE began from the time of signing the VID and consent form through follow-up or early termination. […] Clinical Laboratory Assessments

Structure (SMILES): Nc1ccncc1N [3,4-DAP, 3,4-diaminopyridine]
- paraesthesias among the 93 drug-related AEs: % of events (Overall): 54%
- paraesthesias among the 93 drug-related AEs: events (Overall): 50
- Abdominal Pain, drug-related AE: events (Overall N=47): 3
- Dizziness, drug-related AE: events (Overall N=47): 7
- Dysgeusia, drug-related AE: events (Overall N=47): 3
- Fatigue, drug-related AE: events (Overall N=47): 4
- Gastrointestinal Disorders Total, drug-related AE: % of subjects (Overall N=47): 19%
- Gastrointestinal Disorders Total, drug-related AE: events (Overall N=47): 12
- Gastrointestinal Disorders Total, drug-related AE: subjects (Overall N=47): 9
- Headache, drug-related AE: events (Overall N=47): 5
- Hypoaesthesia Oral, drug-related AE: events (Overall N=47): 6
- Nausea, drug-related AE: events (Overall N=47): 4
- Nervous System Disorders Total, drug-related AE: % of subjects (Overall N=47): 57%
- Nervous System Disorders Total, drug-related AE: events (Overall N=47): 74
- Nervous System Disorders Total, drug-related AE: subjects (Overall N=47): 27
- Paraesthesia Oral, drug-related AE: events (Overall N=47): 30
- Paraesthesia, drug-related AE: events (Overall N=47): 20
